Laboratory results reported in US20230116760A1, “STRUCTURALLY-STABILIZED ONCOLYTIC PEPTIDES AND USES THEREOF” (Dana-Farber Cancer Institute, Inc., priority 2019, published 2023).
Bridge positions count the residues as written; N and C are the ends. Square brackets hold non-standard residues; d marks the D form. Ends that are not written are not given here. S5 = C=CCCC[C@](C)(N)C(=O)O; Nle = CCCC[C@H](N)C(=O)O

Assays:
OCI-AML3 cells = experiment: LDH release assay of OCI-AML3 cells; type: cell-based, human; details: 90 minutes; for cancer cell lysis by LDH release, compared with parent Mag(i+4)15: 10 and 25 μg/mL, FIG. 6, FIG. 7; for susceptibility of OCI-AML3 cells to iStOPs (LDH release): FIG. 19
Experimental: (§1) LDH release assay: To assess the release of lactate dehydrogenase (LDH) upon treatment with a structurally-stabilized peptide described herein, an LDH release assay can be used. Cultured cells, including, e.g., cancer cells and HUVEC cells, are plated in 96-well format (2×10^4 cells per well; including overnight incubation for adherent cells) and then treated with serial dilutions of structurally-stabilized peptides in a final volume in a final volume of 100 μL and incubated at 37° C. for the indicated time period (e.g., 90 minutes). The plates are spun down at 1500 rpm for 5 minutes at 4° C., and 80 μL of cell culture media is transferred to a clear plate (Corning), incubated with 80 μL of LDH reagent (Roche) for 15 minutes while shaking, and absorbance is measured at 490 nm on a microplate reader (SpectraMax M5 Microplate Reader, Molecular Devices). LDH release assays, as tailored to specific cancer cell types (OCI-AML3 cells and primary human pediatric B-ALL cells), are exemplified below.
(§2) LDH release assay of OCI-AML3 cells: OCI-AML3 cells are seeded in 96-well plates (2×10^4 cells per well) in RPMI medium containing 5% FBS and treated with structurally-stabilized peptides for 90 minutes. LDH release is quantified by incubating centrifuged (e.g., at 1500 rpm) cell culture medium 1:1 with LDH reagent (Roche), followed by absorbance measurement 490 nm on a microplate reader (Spectramax M5). Percent LDH release was normalized to 1% Triton.
(§3) LDH release assay: Cultured cells, including cancer cells and HUVEC cells, were plated in 96-well format (2×10^4 cells per well; including overnight incubation for adherent cells) and then treated with serial dilutions of Mag(i+4) peptides in a final volume in a final volume of […] and incubated at 37° C. for the indicated time period. The plates were spun down at 1500 rpm for 5 min at 4° C., and 80 μL of cell culture media was transferred to a clear plate (Corning), incubated with 80 μL of LDH reagent (Roche) for 15 min while shaking, and absorbance measured at 490 nm on a microplate reader (SpectraMax M5 Microplate Reader, Molecular Devices). LDH release assays, as tailored to specific cancer cell types, are exemplified below.
as §2, with “were” for “are”, “with” for “with structurally-stabilized”, “peptides having the indicated amino acid sequences” for “peptides”, “was” for “is”, “centrifuged” for “centrifuged (e.g., at 1500 rpm)”, “Triton. Data was pooled from 2 technical replicates.” for “Triton.”

U937 cells = experiment: LDH release assay of U937 cells; type: cell-based; details: 10 and 25 μg/mL, 90 minutes, FIG. 6, FIG. 7
Experimental: as §1, §3

Row | Substance | cancer cell lysis by LDH release, compared with parent Mag(i+4)15 (OCI-AML3 cells) | cancer cell lysis by LDH release, compared with parent Mag(i+4)15 (U937 cells) | susceptibility of OCI-AML3 cells to iStOPs (LDH release) (OCI-AML3 cells)
1 | GIGKFLHSAKKFGKAX1VGEX2KNS (GIGKFLHSAKKFGKA[S5]VGE[S5]KNS; staple 16-20) [Mag(i+4)15 (M21K)] | retain substantial, if not all, oncolytic activity | retain substantial, if not all, oncolytic activity | 
2 | GIGKFLHSAKKFGKAX1VKEX2BNS (GIGKFLHSAKKFGKA[S5]VKE[S5][Nle]NS; staple 16-20) [Mag(i+4)15 (G18K)] | retain substantial, if not all, oncolytic activity | retain substantial, if not all, oncolytic activity | 
3 | GIGKFLHKAKKFGKAX1VGEX2BNS (GIGKFLHKAKKFGKA[S5]VGE[S5][Nle]NS; staple 16-20) [Mag(i+4)15 (S8K)] | retain substantial, if not all, oncolytic activity | retain substantial, if not all, oncolytic activity | 
4 | GIGKFLHSAKKFGKAX1VGKX2BNS (GIGKFLHSAKKFGKA[S5]VGK[S5][Nle]NS; staple 16-20) [Mag(i+4)15 (E19K)] | retain substantial, if not all, oncolytic activity | retain substantial, if not all, oncolytic activity | 
5 | GIGKFLHSAKKFGKAX1VGEX2BES (GIGKFLHSAKKFGKA[S5]VGE[S5][Nle]ES; staple 16-20) [Mag(i+4)15 (N22E)] | retained potent membrane lysis | retained potent membrane lysis | especially potent and selective activity
6 | GIGKFLHSAKKFGKAX1VGEX2BNE (GIGKFLHSAKKFGKA[S5]VGE[S5][Nle]NE; staple 16-20) [Mag(i+4)15 (S23E)] | retained substantial or all cancer cell killing activity | retained substantial or all cancer cell killing activity | especially potent and selective activity
7 | iStOP 11: integrated StOP of Magainin II combining staples and point mutation(s); sequence only in FIG. 17B ([S5]IGK[S5]LHSKKKFGKA[S5]VGE[S5][Nle]NS; staple 1-5, 16-20) |  |  | especially potent and selective activity
8 | GIGKFLHSAKKFGKAX1VGEX2BKS (GIGKFLHSAKKFGKA[S5]VGE[S5][Nle]KS; staple 16-20) [Mag(i+4)15 (N22K)] | retain substantial, if not all, oncolytic activity | retain substantial, if not all, oncolytic activity | 
9 | GIGKFLHEAKKFGKAX1VGEX2BNS (GIGKFLHEAKKFGKA[S5]VGE[S5][Nle]NS; staple 16-20) [Mag(i+4)15 (S8E)] | retained potent membrane lysis | retained potent membrane lysis | 
10 | GIEKFLHSAKKFGKAX1VGEX2BNS (GIEKFLHSAKKFGKA[S5]VGE[S5][Nle]NS; staple 16-20) [Mag(i+4)15 (G3E)] | retained potent membrane lysis | retained potent membrane lysis | 
11 | GIKKFLHSAKKFGKAX1VGEX2BNS (GIKKFLHSAKKFGKA[S5]VGE[S5][Nle]NS; staple 16-20) [Mag(i+4)15 (G3K)] | retain substantial, if not all, oncolytic activity | retain substantial, if not all, oncolytic activity | 
12 | GIGKFLHSAKKFGKAX1VEEX2BNS (GIGKFLHSAKKFGKA[S5]VEE[S5][Nle]NS; staple 16-20) [Mag(i+4)15 (G18E)] | retained potent membrane lysis | retained potent membrane lysis | especially potent and selective activity
